The values that follow come from patent publication US20230159510A1, “NOVEL PRMT5 INHIBITORS” (AMGEN INC., priority 2020, published 2023).

One assay has as its system HCT116 MTAP null cells. The assay is described as follows: HCT116 proliferation assay, MTAP null cells (CellTiter-Glo, 6 days). Format: cell-based. As to conditions: HCT116-MTAP null, 144 h, read-out: Protif_ HCT116-MTAP null IC50. The method, boiled down:
(§1)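 Compound titrations (top dose 1 or 10 µM, 1:3 dilution, 8 or 9 concentrations) and a DMSO control were applied to cells cultured overnight beforehand in RPMI 1640 with 10% FBS at 37° C, 5% CO2; viability was scored from luminescence.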
(In ATP-based viability assays light output follows the ATP content of the culture.)

A further assay deals with HCT116 WT cells. As to the kind of experiment: HCT116 proliferation assay, WT cells (CellTiter-Glo, 6 days). Type of assay: cell-based. The note with it: Homo sapiens, HCT-116, 144 h, read-out: Prolif_HCT116-WT IC50. An outline of the steps:
as §1

The next assay addresses PRMT5/MEP50 (Homo sapiens, UniProt O14744). The assay is described as follows: MTase-Glo methyl transferase assay, Method A (Histone H4 peptide, 1 µM MTA, 24 h pre-incubation). Type of assay: biochemical. Further details: made in house. The note with it: read-out: PRMT5 MTase Glo Ki (nM, Meth. A). An outline of the steps:
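Luminescent SAH detection (MTase-Glo) after a 2 h room-temperature methylation of 1 µM biotinylated H4 (1-21) peptide by 10 nM PRMT5/MEP50 with 5 µM SAM, in 50 mM Tris pH 8.0.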

Sequence of PRMT5/MEP50 (O14744 whole entry): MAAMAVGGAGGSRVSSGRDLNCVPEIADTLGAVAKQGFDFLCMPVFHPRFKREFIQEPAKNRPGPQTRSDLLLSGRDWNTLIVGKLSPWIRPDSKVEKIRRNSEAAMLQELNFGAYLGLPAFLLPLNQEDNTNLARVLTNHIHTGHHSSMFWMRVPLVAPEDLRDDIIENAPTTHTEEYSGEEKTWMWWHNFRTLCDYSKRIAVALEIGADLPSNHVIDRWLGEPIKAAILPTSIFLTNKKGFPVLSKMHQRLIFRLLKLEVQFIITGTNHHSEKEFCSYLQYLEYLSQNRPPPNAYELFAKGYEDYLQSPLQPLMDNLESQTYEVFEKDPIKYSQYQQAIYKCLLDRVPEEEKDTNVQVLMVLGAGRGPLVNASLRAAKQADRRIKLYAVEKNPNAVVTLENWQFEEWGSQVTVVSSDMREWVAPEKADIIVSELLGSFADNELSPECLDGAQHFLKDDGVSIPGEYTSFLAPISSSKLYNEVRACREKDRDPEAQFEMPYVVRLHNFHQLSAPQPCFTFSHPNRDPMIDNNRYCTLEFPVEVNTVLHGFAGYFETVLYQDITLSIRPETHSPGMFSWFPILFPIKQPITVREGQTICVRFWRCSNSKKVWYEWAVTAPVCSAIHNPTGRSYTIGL
Sequence of PRMT5/MEP50 (Q9BQA1 whole entry partner): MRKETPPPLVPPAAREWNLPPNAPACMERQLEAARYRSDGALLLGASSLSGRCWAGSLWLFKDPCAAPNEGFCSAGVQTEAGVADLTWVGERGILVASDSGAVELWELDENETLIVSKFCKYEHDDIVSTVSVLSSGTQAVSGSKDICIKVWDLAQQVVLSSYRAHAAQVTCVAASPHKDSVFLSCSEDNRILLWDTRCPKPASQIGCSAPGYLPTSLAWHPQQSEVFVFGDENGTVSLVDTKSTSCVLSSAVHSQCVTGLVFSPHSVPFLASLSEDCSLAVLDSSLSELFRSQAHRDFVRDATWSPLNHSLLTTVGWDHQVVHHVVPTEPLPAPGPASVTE

`Cc1cc2cc(C(=O)N(Cc3ccc(C(F)(F)F)cn3)[C@H](C)c3cnccn3)cnc2nc1N` [Example 538, 7-amino-6-methyl-N-((1R)-1-(2-pyrazinyl)ethyl)-N-((5-(trifluoromethyl)-2-pyridinyl)methyl)-1,8-naphthyridine-3-carboxamide]: the half-inhibitory concentration (IC50) was 732 nM in the assay on HCT116 MTAP null cells and above 10000 nM in the assay on HCT116 WT cells. For the same compound, the Ki at PRMT5/MEP50 is 0.68 nM.

Take `Cc1cc2nc(N)c(C)cc2cc1C(=O)N(Cc1ccc(C(F)(F)F)cn1)CC(C)C` [Example 539, 2-amino-N-isobutyl-3,7-dimethyl-N-((5-(trifluoromethyl)pyridin-2-yl)methyl)quinoline-6-carboxamide]: the half-maximal inhibitory concentration (IC50) was determined as 328 nM in the assay with HCT116 MTAP null cells and 7010 nM in the assay on HCT116 WT cells. In addition, at PRMT5/MEP50, the Ki turned out to be 0.12 nM.

`Cc1cc2cc(C(=O)N(Cc3ccc(S(=O)(=O)C4CC4)cn3)[C@H](C)c3ncccc3F)ccc2nc1N` [Example 540, (R)-2-amino-N-((5-(cyclopropylsulfonyl)pyridin-2-yl)methyl)-N-(1-(3-fluoropyridin-2-yl)ethyl)-3-methylquinoline-6-carboxamide]: the figures for the IC50 in the assay on HCT116 MTAP null cells and with HCT116 WT cells were 194 nM and 6270 nM, respectively. For the same compound, on PRMT5/MEP50, the inhibition constant (Ki) came to 0.17 nM.

For `Cc1cc2cc(C(=O)N(Cc3ccc(S(C)(=O)=O)cn3)[C@H](C)c3ncccc3F)ccc2nc1N` [Example 541, (R)-2-amino-N-((5-(methylsulfonyl)pyridin-2-yl)methyl)-N-(1-(3-fluoropyridin-2-yl)ethyl)-3-methylquinoline-6-carboxamide], the IC50 in the assay with HCT116 MTAP null cells was found to be 198 nM; with HCT116 WT cells, 4140 nM. At PRMT5/MEP50, the inhibition constant (Ki) was 0.13 nM.

`Cc1cc2cc(C(=O)N(Cc3ccc(C#N)cn3)[C@H](C)c3ncccc3F)ccc2nc1N` [Example 542, (R)-2-amino-N-((5-cyanopyridin-2-yl)methyl)-N-(1-(3-fluoropyridin-2-yl)ethyl)-3-methylquinoline-6-carboxamide]: the concentration for half-maximal inhibition (IC50) stood at 110 nM in the assay on HCT116 MTAP null cells and 4180 nM in the assay with HCT116 WT cells. At PRMT5/MEP50, the Ki worked out at 0.12 nM.

For the compound `C#Cc1cc2cc(C(=O)N(Cc3ccc(C(F)(F)F)cn3)[C@H](C)c3ncccc3F)cnc2nc1N` [Example 543, (R)-7-amino-6-ethynyl-N-(1-(3-fluoropyridin-2-yl)ethyl)-N-((5-(trifluoromethyl)pyridin-2-yl)methyl)-1,8-naphthyridine-3-carboxamide], the IC50 was 568 nM in the assay on HCT116 MTAP null cells and above 10000 nM in the assay with HCT116 WT cells. In addition, at PRMT5/MEP50, the Ki is 0.59 nM.

Take `Cc1c(N)nc2ccc(C(=O)N(Cc3ccc(C#N)cn3)[C@H](C)c3ncccn3)cc2c1C` [Example 545, 2-amino-N-((5-cyano-2-pyridinyl)methyl)-3,4-dimethyl-N-((1R)-1-(2-pyrimidinyl)ethyl)-6-quinolinecarboxamide]: the IC50 in the assay with HCT116 MTAP null cells worked out at 32 nM; with HCT116 WT cells, 478 nM. Besides, the Ki at PRMT5/MEP50 was determined as 0.41 nM.

In the case of `Cc1cc2cc(C(=O)N(Cc3ccc(C4CC4)cn3)CC(C)C)ccc2nc1N` [Example 546, 2-amino-N-((5-cyclopropyl-2-pyridinyl)methyl)-3-methyl-N-(2-methylpropyl)-6-quinolinecarboxamide], the 50% inhibitory concentration (IC50) in the assay on HCT116 MTAP null cells came out at 262 nM; in the assay on HCT116 WT cells, 4390 nM. For the same compound, on PRMT5/MEP50, the inhibition constant Ki came to 1.09 nM.

For the compound `Cc1cc2cc(C(=O)N(Cc3ccc(C4=CCN(C(=O)OC(C)(C)C)CC4)cn3)[C@H](C)c3ncccn3)ccc2nc1N` [Example 547, tert-butyl (R)-6-((2-amino-3-methyl-N-(1-(pyrimidin-2-yl)ethyl)quinoline-6-carboxamido)methyl)-3’,6′-dihydro-[3,4′-bipyridine]-1′(2’H)-carboxylate], the IC50 came out at 19 nM in the assay on HCT116 MTAP null cells and 443 nM in the assay with HCT116 WT cells. Also, the Ki at PRMT5/MEP50 was found to be 0.02 nM.

With `CC(=O)N1CC=C(c2ccc(CN(C(=O)c3ccc4nc(N)c(C)cc4c3)[C@H](C)c3ncccn3)nc2)CC1` [Example 548, N-((1′-acetyl-1’,2’,3’,6′-tetrahydro[3,4′-bipyridin]-6-yl)methyl)-2-amino-3-methyl-N-((1R)-1-(2-pyrimidinyl)ethyl)-6-quinolinecarboxamide], the half-maximal inhibitory concentration (IC50) came out at 88 nM in the assay with HCT116 MTAP null cells and 2080 nM in the assay on HCT116 WT cells. For the same compound, the inhibitory constant (Ki) on PRMT5/MEP50 was 0.1 nM.

Take `Cc1cc2cc(C(=O)N(Cc3ncc(C#N)cc3C)[C@H](C)c3ncccn3)ccc2nc1N` [Example 549, 2-amino-N-((5-cyano-3-methyl-2-pyridinyl)methyl)-3-methyl-N-((1R)-1-(2-pyrimidinyl)ethyl)-6-quinolinecarboxamide]: the figures for the half-inhibitory concentration (IC50) in the assay with HCT116 MTAP null cells and in the assay with HCT116 WT cells were 275 nM and 5090 nM, respectively. The Ki at PRMT5/MEP50 was 0.07 nM.

Consider `Cc1cc2cc(C(=O)N(Cc3ccc(C(N)=O)cn3)[C@H](C)c3ccccc3F)ccc2nc1N` [Example 550, 2-amino-N-((5-carbamoyl-2-pyridinyl)methyl)-N-((1R)-1-(2-fluorophenyl)ethyl)-3-methyl-6-quinolinecarboxamide], for which the figures for the concentration for half-maximal inhibition (IC50) in the assay with HCT116 MTAP null cells and in the assay with HCT116 WT cells were 199 nM and 5930 nM, respectively. The Ki on PRMT5/MEP50 is 0.14 nM.

For the compound `COC(=O)N1CC=C(c2ccc(CN(C(=O)c3ccc4nc(N)c(C)cc4c3)[C@H](C)c3ncccn3)nc2)CC1` [Example 551, methyl 6-((((2-amino-3-methyl-6-quinolinyl)carbonyl)((1R)-1-(2-pyrimidinyl)ethyl)amino)methyl)-3’,6′-dihydro[3,4′-bipyridine]-1′(2′H)-carboxylate], the results for the IC50 in the assay with HCT116 MTAP null cells and in the assay on HCT116 WT cells were 21 nM and 634 nM, respectively. For the same compound, the inhibition constant (Ki) at PRMT5/MEP50 amounted to 0.14 nM.

Take `CC(=O)N1CCC(c2ccc(CN(C(=O)c3ccc4nc(N)c(C)cc4c3)[C@H](C)c3ncccn3)nc2)CC1` [Example 552, N-((5-(1-acetyl-4-piperidinyl)-2-pyridinyl)methyl)-2-amino-3-methyl-N-((1R)-1-(2-pyrimidinyl)ethyl)-6-quinolinecarboxamide]: the results for the IC50 in the assay with HCT116 MTAP null cells and in the assay on HCT116 WT cells were 220 nM and 2550 nM, respectively. In addition, the Ki on PRMT5/MEP50 stood at 0.32 nM.

On to `Cc1cc2cc(C(=O)N(Cc3cnc(C#N)cn3)[C@H](C)c3ncccn3)ccc2nc1N` [Example 553, 2-amino-N-((5-cyano-2-pyrazinyl)methyl)-3-methyl-N-((1R)-1-(2-pyrimidinyl)ethyl)-6-quinolinecarboxamide], for which the 50% inhibitory concentration (IC50) in the assay with HCT116 MTAP null cells is 454 nM; in the assay with HCT116 WT cells, above 10000 nM. In addition, the Ki at PRMT5/MEP50 came to 0.36 nM.

In the case of `Cc1cc2cc(C(=O)N(Cc3ccc(N(C)C)nn3)[C@H](C)c3ncccn3)ccc2nc1N` [Example 554, (R)-2-amino-N-((6-(dimethylamino)pyridazin-3-yl)methyl)-3-methyl-N-(1-(pyrimidin-2-yl)ethyl)quinoline-6-carboxamide], the IC50 came out at 122 nM in the assay with HCT116 MTAP null cells and 4280 nM with HCT116 WT cells. Besides, the Ki on PRMT5/MEP50 came out at 0.07 nM.

In the case of `Cc1cc2cc(C(=O)N(Cc3ccc(N4CCOCC4)nn3)[C@H](C)c3ncccn3)ccc2nc1N` [Example 555, (R)-2-amino-3-methyl-N-((6-morpholinopyridazin-3-yl)methyl)-N-(1-(pyrimidin-2-yl)ethyl)quinoline-6-carboxamide], the IC50 in the assay with HCT116 MTAP null cells was 125 nM; with HCT116 WT cells it was 3820 nM. Also, the inhibitory constant (Ki) at PRMT5/MEP50 turned out to be 0.07 nM.

With `Cc1cc2cc(C(=O)N(Cc3ccc(N4CC5(COC5)C4)cn3)[C@H](C)c3ncccn3)ccc2nc1N` [Example 556, (R)-N-((5-(2-oxa-6-azaspiro[3.3]heptan-6-yl)pyridin-2-yl)methyl)-2-amino-3-methyl-N-(1-(pyrimidin-2-yl)ethyl)quinoline-6-carboxamide], the values for the 50% inhibitory concentration (IC50) with HCT116 MTAP null cells and in the assay with HCT116 WT cells were 342 nM and 10100 nM, respectively. Also, the inhibitory constant (Ki) on PRMT5/MEP50 stood at 4.1 nM.

With `Cc1cc2cc(C(=O)N(Cc3ccc(C4=CCOCC4)cn3)[C@H](C)c3ncccn3)ccc2nc1N` [Example 557, (R)-2-amino-N-((5-(3,6-dihydro-2H-pyran-4-yl)pyridin-2-yl)methyl)-3-methyl-N-(1-(pyrimidin-2-yl)ethyl)quinoline-6-carboxamide], the IC50 in the assay with HCT116 MTAP null cells is 42 nM; with HCT116 WT cells it was 1730 nM. Further, the Ki on PRMT5/MEP50 worked out at 0.18 nM.

Consider `Cc1cc2cc(C(=O)N(Cc3ccc(C4=CCCOC4)cn3)[C@H](C)c3ncccn3)ccc2nc1N` [Example 558, 2-amino-N-((5-(5,6-dihydro-2H-pyran-3-yl)-2-pyridinyl)methyl)-3-methyl-N-((1R)-1-(2-pyrimidinyl)ethyl)-6-quinolinecarboxamide], for which the results for the concentration for half-maximal inhibition (IC50) in the assay on HCT116 MTAP null cells and in the assay with HCT116 WT cells were 38 nM and 1300 nM, respectively. Moreover, the Ki on PRMT5/MEP50 was 0.08 nM.

Turning to `Cc1cc2cc(C(=O)N(Cc3ccc(C4CCOCC4)cn3)[C@H](C)c3ncccn3)ccc2nc1N` [Example 559, 2-amino-3-methyl-N-((1R)-1-(2-pyrimidinyl)ethyl)-N-((5-(tetrahydro-2H-pyran-4-yl)-2-pyridinyl)methyl)-6-quinolinecarboxamide], the half-inhibitory concentration (IC50) came to 147 nM in the assay on HCT116 MTAP null cells and 2190 nM in the assay on HCT116 WT cells. For the same compound, the Ki on PRMT5/MEP50 is 0.07 nM.

With `Cc1cc2cc(C(=O)N(Cc3ccc(C(=O)N(C)C)cn3)Cc3ncccc3F)ccc2nc1N` [Example 560, 2-amino-N-((5-(dimethylcarbamoyl)-2-pyridinyl)methyl)-N-((3-fluoro-2-pyridinyl)methyl)-3-methyl-6-quinolinecarboxamide], the 50% inhibitory concentration (IC50) in the assay with HCT116 MTAP null cells was 623 nM; with HCT116 WT cells, above 10000 nM. At PRMT5/MEP50, the Ki is 0.2 nM.

Take `Cc1cc2cc(C(=O)N(Cc3ccc(C(=O)N(C)C)cn3)[C@H](C)c3ncccc3F)ccc2nc1N` [Example 561, 2-amino-N-((5-(dimethylcarbamoyl)-2-pyridinyl)methyl)-N-((1R)-1-(3-fluoro-2-pyridinyl)ethyl)-3-methyl-6-quinolinecarboxamide]: the IC50 with HCT116 MTAP null cells is 895 nM; in the assay on HCT116 WT cells, above 10000 nM. In addition, the inhibition constant Ki on PRMT5/MEP50 stood at 0.3 nM.

The IC50 is the concentration that gives 50% inhibition. A word on the Ki: it is the equilibrium dissociation constant of an inhibitor or competing ligand from its target.
